The source of these data is patent US12662674B2, “RNA nanoparticle for liver cancer treatment” (OHIO STATE INNOVATION FOUNDATION, priority 2019, dated 2026).

For the data set, the system named is HepG2 cells. As to the kind of experiment: HSA synergy modeling of cell viability. As to conditions: HSA model, Combenefit; FIG. 17C: 6WJ/HTL/miR122 and 6WJ/HTL/PTX nanoparticles.

Source text: To study the synergy between miR122 and PTX in cytotoxicity induction, an MTT cell viability assay was first performed. […] Cell viability was used as an indicator to quantify the correlation of synergy between miR122 and PTX using Highest Single Agent (HSA) synergy modeling. The data was processed and quantified using Combenefit software to obtain the HSA synergy score between miR122 and PTX (FIG. 17C). […] The number represented the co-efficiency of synergy.
Cell viability was studied following MTT protocol in cytotoxicity assay. The result was presented by Prism 8.0 (Graph Pad). The viability result was entered into HSA synergy modeling by Combenefit and plotted by Prism 8.0.

Take `CC(=O)O[C@H]1C(=O)[C@@]2(C)[C@H]([C@H](OC(=O)c3ccccc3)[C@]3(O)C[C@H](OC(=O)[C@H](O)[C@@H](NC(=O)c4ccccc4)c4ccccc4)C(C)=C1C3(C)C)[C@]1(OC(C)=O)CO[C@@H]1C[C@@H]2O` [PTX, Paclitaxel]: the “concentration of highest synergy in cytotoxic induction” value was 3.2 µM.
